Results: ChEMBL document CHEMBL1201862, “PubChem BioAssay data set” (2004)
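How tested: cells in 96-well plates exposed to compound for 48 hours at five concentrations. GI50 is the concentration that inhibits growth by half.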 Calls of active or inactive are those of the source. Cut-off read from the data, not from the text of the source: active = GI50 up to about 1.1 µM and inactive = higher.

Assays:
Test in all cases: inhibition of tumour cell growth, NCI panel, 48 h
Hs-578T = tested on: Hs-578T
HL-60 = tested on: HL-60
SK-MEL-28 = tested on: SK-MEL-28
COLO 205 = tested on: COLO 205
SK-MEL-2 = tested on: SK-MEL-2
SF-295 = tested on: SF-295
SN12C = tested on: SN12C
EKVX = tested on: EKVX
A498 = tested on: A498
NCI-H23 = tested on: NCI-H23
UACC-62 = tested on: UACC-62
SNB-19 = tested on: SNB-19
SR = tested on: SR
LOX IMVI = tested on: LOX IMVI
OVCAR-3 = tested on: OVCAR-3
TK-10 = tested on: TK-10
T47D = tested on: T47D
NCI-H460 = tested on: NCI-H460

Measured: GI50

COI1NC(=O)c2ccccc21
inactive: Hs-578T > 100 µM | HL-60 > 100 µM | SK-MEL-28 > 100 µM | COLO 205 > 100 µM | SK-MEL-2 > 100 µM | SF-295 > 100 µM | SN12C > 100 µM | EKVX > 100 µM | A498 > 100 µM | NCI-H23 > 100 µM | UACC-62 > 100 µM | SNB-19 > 100 µM | SR > 100 µM | LOX IMVI > 100 µM | OVCAR-3 > 100 µM | TK-10 > 100 µM

C1C2CC3CC1CC(c1nn4c(C56CC7CC(CC(C7)C5)C6)nnc4s1)(C2)C3
inactive: Hs-578T > 100 µM | HL-60 > 100 µM | SK-MEL-28 > 100 µM | COLO 205 > 100 µM | SK-MEL-2 > 100 µM | SF-295 > 100 µM | SN12C > 100 µM | EKVX > 100 µM | A498 > 100 µM | NCI-H23 > 100 µM | UACC-62 > 100 µM | SNB-19 > 100 µM | SR > 100 µM | LOX IMVI > 100 µM | T47D > 100 µM | OVCAR-3 > 100 µM | NCI-H460 > 100 µM | TK-10 > 100 µM

CCOC(=O)c1c(SC(=O)c2ccc(OC)cc2)n(-c2ccccc2)c(=S)n(-c2ccccc2)c1=O
inactive: Hs-578T 45.4 µM | HL-60 40.3 µM | SK-MEL-28 > 100 µM | COLO 205 89.1 µM | SF-295 > 100 µM | SN12C 76.9 µM | EKVX > 100 µM | A498 27.3 µM | NCI-H23 61.9 µM | UACC-62 > 100 µM | SNB-19 > 100 µM | SR 29.9 µM | LOX IMVI 36.3 µM | T47D > 100 µM | OVCAR-3 50 µM | NCI-H460 84.7 µM | TK-10 > 100 µM

c1ccc2c3nnc(c2c1)SCCSCCCSCCS3
inactive: Hs-578T 32.4 µM | HL-60 > 100 µM | SK-MEL-28 > 100 µM | COLO 205 > 100 µM | SK-MEL-2 58.7 µM | SF-295 31.4 µM | SN12C 53.8 µM | EKVX > 100 µM | A498 45.1 µM | NCI-H23 > 100 µM | UACC-62 57.5 µM | SNB-19 26.5 µM | LOX IMVI > 100 µM | T47D > 100 µM | OVCAR-3 38 µM | NCI-H460 > 100 µM | TK-10 48 µM

COc1cccc(/C=C2\N=C(Cl)OC2=O)c1O
inactive: HL-60 > 100 µM | SK-MEL-28 > 100 µM | COLO 205 > 100 µM | SK-MEL-2 > 100 µM | SF-295 > 100 µM | SN12C > 100 µM | EKVX > 100 µM | A498 > 100 µM | NCI-H23 > 100 µM | UACC-62 > 100 µM | SNB-19 > 100 µM | SR > 88.9 µM | LOX IMVI > 100 µM | OVCAR-3 > 100 µM | NCI-H460 > 100 µM | TK-10 > 100 µM

COc1ccc2c3c1O[C@]1(C)C34CCN(C)C(C2)C42C=C[C@@]1(OC)c1c(O)ccc(O)c12
inactive: HL-60 17.8 µM | SK-MEL-28 > 100 µM | COLO 205 > 100 µM | SK-MEL-2 > 100 µM | SF-295 > 100 µM | EKVX > 100 µM | A498 > 100 µM | NCI-H23 > 100 µM | SNB-19 > 100 µM | LOX IMVI > 100 µM | OVCAR-3 > 100 µM | NCI-H460 > 100 µM | TK-10 > 100 µM

Cc1cc(Cl)ccc1NC(=O)CC/C(CC(=O)C(C)C)=N\NC(=O)C[n+]1ccccc1
inactive: HL-60 > 100 µM | SK-MEL-28 > 100 µM | COLO 205 > 100 µM | SK-MEL-2 > 100 µM | SF-295 > 100 µM | SN12C > 100 µM | EKVX > 100 µM | A498 > 100 µM | NCI-H23 > 100 µM | UACC-62 > 100 µM | SNB-19 > 100 µM | SR > 100 µM | LOX IMVI > 100 µM | OVCAR-3 > 100 µM | NCI-H460 > 100 µM | TK-10 > 100 µM

N#Cc1c(N)nc2c3c1NC(=O)C(C(N)=O)C3c1ccccc1O2 (centres undefined)
inactive: HL-60 99.3 µM | SK-MEL-28 > 100 µM | COLO 205 > 100 µM | SK-MEL-2 > 100 µM | SF-295 32.1 µM | SN12C > 100 µM | EKVX 37.3 µM | A498 > 100 µM | NCI-H23 71.8 µM | UACC-62 27.5 µM | SNB-19 47.9 µM | SR 62.5 µM | LOX IMVI > 100 µM | T47D 95.9 µM | OVCAR-3 > 100 µM | NCI-H460 > 100 µM | TK-10 > 100 µM

CCOc1c2c(cc3c1C(=O)c1c(OC)cccc1C3=O)C=C(OC)CC2
inactive: Hs-578T > 25 µM | HL-60 5.62 µM | SK-MEL-28 > 25 µM | COLO 205 21.6 µM | SK-MEL-2 > 25 µM | SF-295 10.7 µM | SN12C > 25 µM | EKVX > 25 µM | A498 > 25 µM | NCI-H23 > 25 µM | UACC-62 10.3 µM | SNB-19 > 25 µM | SR 7.45 µM | LOX IMVI 16.8 µM | OVCAR-3 > 25 µM | NCI-H460 13.3 µM | TK-10 > 25 µM

O=C(Nc1ccccn1)/C(=C\C(=O)c1ccc(Cl)cc1)Nc1ccccc1
inactive: HL-60 > 10 µM | SK-MEL-28 > 10 µM | COLO 205 > 10 µM | SF-295 > 10 µM | SN12C > 10 µM | EKVX > 10 µM | NCI-H23 > 10 µM | UACC-62 > 10 µM | SR > 10 µM | LOX IMVI > 10 µM | T47D > 10 µM | TK-10 > 10 µM

COc1ccc2c3c([nH]c2c1[N+](=O)[O-])C(C)N(C(=O)/C=C/c1ccccc1)CC3 (centres undefined)
inactive: HL-60 2.64 µM | SK-MEL-28 5.14 µM | COLO 205 3.46 µM | SK-MEL-2 10.7 µM | SF-295 2.42 µM | SN12C 41.2 µM | EKVX 16.6 µM | A498 2.62 µM | NCI-H23 25.5 µM | UACC-62 2.07 µM | SNB-19 36.9 µM | SR 3.92 µM | LOX IMVI 2.92 µM | OVCAR-3 4.8 µM | NCI-H460 2.96 µM | TK-10 60.3 µM

OCCN(CCO)c1nc(N2CCCCC2)c2nc(N(CCO)CCO)nc(N3CCCCC3)c2n1 [DIPYRIDAMOLE]
inactive: Hs-578T 31.8 µM | HL-60 15.7 µM | SK-MEL-28 43 µM | COLO 205 41.9 µM | SK-MEL-2 34.6 µM | SN12C 34 µM | EKVX 25.6 µM | NCI-H23 65.3 µM | SR 3.46 µM | LOX IMVI 37 µM | T47D 35.6 µM | OVCAR-3 12.4 µM | NCI-H460 28 µM | TK-10 17.1 µM
